Source: BindingDB's records for doi:10.1016/j.bmc.2018.11.002 (2018)

Legend:
[1] = Inhibition of mouse GAT2 expressed in HEK293 cells assessed as reduction in [3H]GABA uptake preincubated for 25 mins followed by [3H]GABA addition and measured after 4 mins by liquid scintillation counting method
[2] = Inhibition of mouse GAT3 expressed in HEK293 cells assessed as reduction in [3H]GABA uptake preincubated for 25 mins followed by [3H]GABA addition and measured after 4 mins by liquid scintillation counting method

Row | IC50 [1] [µM] | IC50 [2] [µM] | SMILES
1 | 33.9 | 52.5 | O=C(O)C1CCCN(C/C=C/C(c2ccc3sccc3c2)(c2ccc3sccc3c2)c2ccc3sccc3c2)C1 (stereo not given)
2 | – | 53.7 | COc1ccc(C(/C=C/CN2CCCC(C(=O)O)C2)c2ccc(OC)cc2)cc1 (stereo not given)
3 | 25.1 | 20 | COc1ccc(C(/C=C/CN2CCCC(C(=O)O)C2)(c2ccc(OC)cc2)c2ccc3sccc3c2)cc1 (stereo not given)
4 | 23.4 | – | COc1ccc(C(/C=C/CN2CCC[C@H](C(=O)O)C2)(c2ccc(OC)cc2)c2ccc3sccc3c2)cc1
5 | – | 42.7 | COc1ccc(C(/C=C/CN2CCCC(C(=O)O)C2)(c2ccc(OC)cc2)c2ccsc2)cc1 (stereo not given)
6 | 89.1 | 24.5 | O=C(O)C1CCCN(C/C=C/C(c2ccc3c(c2)OCO3)(c2ccc3c(c2)OCO3)c2ccc3c(c2)OCO3)C1 (stereo not given)
7 | 14.1 | 15.8 | Cc1ccc(C(/C=C/CN2CCCC(C(=O)O)C2)(c2ccc(C)cc2)c2ccc(C)cc2)cc1 (stereo not given)
8 | 9.55 | 5.5 | O=C(O)C1CCCN(C/C=C/C(c2ccc3occc3c2)(c2ccc3occc3c2)c2ccc3occc3c2)C1 (stereo not given)
9 | – | 85.1 | COc1ccc(C(C/C=C/CN2CCCC(C(=O)O)C2)(c2ccc(OC)cc2)c2ccc(OC)cc2)cc1 (stereo not given)
10 | – | 10.2 | COc1ccc(C(/C=C/CN2CCCC(C(=O)O)C2)(c2ccc(OC)cc2)c2ccc3c(c2)OCO3)cc1 (stereo not given)
